# Values quoted from earlier work as cited in patent publication US20260225982A1, “NEW METHOD FOR OZONOLYSIS AND REDUCTIVE QUENCHING OF OZONIDES” (P2 SCIENCE, INC., priority 2023, published 2026).
# Assays:
# [1] = species and route not given; given in comparison with oral rat LD50 of glyoxal
# [2] = tested on: rat
compound,measurement,setting,value
[Cl-].[Na+] [table salt],LD50,[1],3000 mg/kg
O=CC=O [Glyoxal],oral rat LD50,[2]; oral,3300 mg/kg
O=CC(=O)O [Glyoxylic acid],rat LD50,[2]; in vivo,2500 mg/kg
